Laboratory results as given in the supplement of paper PMC10307832.

Tests used:
Test in all cases: relative viability (nuclei count vs DMSO), 5 days (fraction); higher = more cells survive
[1] = compound: O=C(Nc1c[nH]nc1-c1nc2ccc(CN3CCOCC3)cc2[nH]1)NC1CC1 [AT9283] + COc1cc2c(Oc3ccc(NC(=O)C4(C(=O)Nc5ccc(F)cc5)CC4)cc3F)ccnc2cc1OCCCN1CCOCC1 [Foretinib] (partner 0.25 µM)
Outline: (§1)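 Five library-drug doses in √10 steps were combined with a fixed anchor-drug dose, or a single drug was given alone, by pin tool to lung cancer cell lines in 1536-well plates the day after seeding. Nuclei were stained and counted after 5 days. Relative viability is the nuclei count in treated wells over that in vehicle wells, taken as the median of duplicate plates.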

[2] = compound: C#Cc1cccc(Nc2ncnc3cc(OCCOC)c(OCCOC)cc23)c1 [Erlotinib] + CCNC(=O)c1noc(-c2cc(C(C)C)c(O)cc2O)c1-c1ccc(CN2CCOCC2)cc1 [Luminespib] (partner 0.01 µM)
Outline: as §1

[3] = compound: C#Cc1cccc(Nc2ncnc3cc(OCCOC)c(OCCOC)cc23)c1 [Erlotinib] + O=C(c1cc(Cc2n[nH]c(=O)c3ccccc23)ccc1F)N1CCN(C(=O)C2CC2)CC1 [Olaparib] (partner 8 µM)
Outline: as §1

[4] = compound: C#Cc1cccc(Nc2ncnc3cc(OCCOC)c(OCCOC)cc23)c1 [Erlotinib] + COc1cccc2cc(-c3nc([C@H]4CC[C@H](C(=O)O)CC4)n4ncnc(N)c34)[nH]c12 [OSI-027] (partner 0.5 µM)
Outline: as §1

[5] = compound: O=C(Nc1c[nH]nc1-c1nc2ccc(CN3CCOCC3)cc2[nH]1)NC1CC1 [AT9283] + Cc1cc(Nc2cc(N3CCN(C)CC3)nc(Sc3ccc(NC(=O)C4CC4)cc3)n2)n[nH]1 [Tozasertib] (partner 0.1 µM)
Outline: as §1

Cell Line	relative viability ([1]; first compound 0.003 µM)	relative viability ([1]; first compound 0.03 µM)	relative viability ([1]; first compound 0.09487 µM)	relative viability ([1]; first compound 0.3 µM)	relative viability ([2]; first compound 0.02 µM)	relative viability ([2]; first compound 0.2 µM)	relative viability ([2]; first compound 0.6325 µM)	relative viability ([2]; first compound 2 µM)	relative viability ([3]; first compound 0.02 µM)	relative viability ([3]; first compound 0.2 µM)	relative viability ([3]; first compound 0.6325 µM)	relative viability ([3]; first compound 2 µM)	relative viability ([4]; first compound 0.02 µM)	relative viability ([4]; first compound 0.2 µM)	relative viability ([4]; first compound 0.6325 µM)	relative viability ([4]; first compound 2 µM)	relative viability ([5]; first compound 0.003 µM)	relative viability ([5]; first compound 0.03 µM)	relative viability ([5]; first compound 0.09487 µM)	relative viability ([5]; first compound 0.3 µM)
SK-MES-1	0.924	0.863	0.604	0.143	0.77	0.453	0.486	0.461	0.821	0.563	0.465	0.346	0.615	0.415	0.356	0.221	1	0.679	0.254	0.125
H3255	0.924	0.794	0.734	0.183	0.768	0.531	0.326	0.295	0.661	0.469	0.387	0.242	0.638	0.345	0.207	0.202	0.664	0.358	0.2	0.161
NCI-H2126	1.2	1.18	0.652	0.447	0.882	0.648	0.589	0.635	0.872	0.851	0.729	0.718	0.668	0.592	0.532	0.366	0.788	0.506	0.341	0.313
NCI-H1703	0.335	0.254	0.273	0.228	–	–	–	–	0.48	0.512	0.43	0.389	–	–	–	–	–	–	–	–
SW 1573	0.621	0.423	0.239	0.233	0.327	0.217	0.214	0.183	0.502	0.494	0.558	0.364	0.651	0.503	0.597	0.44	0.204	0.192	0.211	0.112
NCI-H838	1.05	0.427	0.262	0.281	0.321	0.313	0.427	0.303	0.823	0.766	0.859	0.726	0.421	0.474	0.359	0.319	0.274	0.271	0.216	0.24
NCI-H1792	–	–	–	–	0.42	0.319	0.49	0.281	0.407	0.299	0.464	0.383	0.728	0.561	0.586	0.362	–	–	–	–
NCI-H1651	0.837	0.779	0.638	0.396	0.883	0.837	0.817	0.746	0.171	0.188	0.173	0.145	0.628	0.698	–	0.482	0.699	0.638	0.506	0.316
HARA	0.79	0.151	0.122	0.109	0.784	0.417	0.586	0.255	1.1	0.591	1.02	0.354	0.575	0.492	0.44	0.217	0.154	0.1	0.0825	0.0852
NCI-H1944	0.821	0.373	0.267	0.254	0.813	0.471	0.609	0.434	0.396	0.311	0.382	0.304	0.413	0.355	0.291	0.269	0.256	0.257	0.23	0.224
SK-LU-1	0.925	0.385	0.214	0.27	0.21	0.208	0.188	0.202	0.536	0.551	0.403	0.455	0.305	0.369	0.302	0.253	0.359	0.301	0.253	0.267
NCI-H650	1.08	0.958	0.332	0.154	0.822	0.783	0.679	0.794	0.419	0.389	–	0.34	0.506	0.594	0.515	0.405	0.693	0.408	0.17	0.177
PC-14	0.956	0.796	0.581	0.16	0.154	0.134	0.147	0.0981	0.272	0.168	0.135	0.106	0.43	0.0949	0.136	0.0777	0.504	0.387	0.0959	0.0742
NCI-H2170	1.06	0.897	0.261	0.21	0.685	0.413	0.743	0.398	0.651	0.602	0.476	0.309	0.687	0.748	0.566	0.403	0.748	0.276	0.164	0.157
